Test results from the Kinase Knowledgebase extract (Sharma et al. 2016).

Target: CDK2 (UniProt P24941)
Assay: Enzyme Assay
Settings: not given

Point of comparison: `C[C@H](CN(C)C)N(C)C(=O)c1ccc(Nc2nc(N)c(C(=O)c3c(F)cccc3F)s2)cc1`, Ki 111 nM. Against it:
- Cn1cccc1CNC(=O)c1ccc(Nc2nc(N)c(C(=O)c3c(F)cccc3F)s2)cc1 — 5.5-fold lower, 20 nM
- N#CCc1ccc(CNC(=O)c2ccc(Nc3nc(N)c(C(=O)c4c(F)cccc4F)s3)cc2)cc1 — 4.4-fold lower, 25 nM

Same assay, conditions: concentration not given here

Point of comparison: `Nc1nc(Nc2ccc(C(=O)NCCOCCO)cc2)sc1C(=O)c1c(F)cccc1F`, inhibition -9%. Against it:
- CC(CCc1ccccc1)NC(=O)c1ccc(Nc2nc(N)c(C(=O)c3c(F)cccc3F)s2)cc1 (stereo unspecified) — higher, -6%
- CCN(C)C(=O)c1ccc(Nc2nc(N)c(C(=O)c3c(F)cccc3F)s2)cc1 — lower, -12%
- Nc1nc(Nc2ccc(C(=O)NCCc3c(Cl)cccc3Cl)cc2)sc1C(=O)c1c(F)cccc1F — lower, -21%
- CCCN(C(=O)c1ccc(Nc2nc(N)c(C(=O)c3c(F)cccc3F)s2)cc1)C(C)CC (stereo unspecified) — lower, -16%
- Nc1nc(Nc2ccc(C(=O)Nc3cccc(OC(F)(F)F)c3)cc2)sc1C(=O)c1c(F)cccc1F — lower, -31%
- CN(Cc1ccco1)C(=O)c1ccc(Nc2nc(N)c(C(=O)c3c(F)cccc3F)s2)cc1 — higher, -3%
- COCCN(C)C(=O)c1ccc(Nc2nc(N)c(C(=O)c3c(F)cccc3F)s2)cc1 — lower, -16%
- CN1CCN(C(=O)c2ccc(Nc3nc(N)c(C(=O)c4c(F)cccc4F)s3)cc2)CC1 — the same, -9%
- CCN(CC)CCCN(C)C(=O)c1ccc(Nc2nc(N)c(C(=O)c3c(F)cccc3F)s2)cc1 — lower, -27%
- CC(C)N(Cc1ccccc1)c1ccc(NC(=O)c2ccc(Nc3nc(N)c(C(=O)c4c(F)cccc4F)s3)cc2)cc1 — higher, -4%
- Nc1nc(Nc2ccc(C(=O)N3CCCC3)cc2)sc1C(=O)c1c(F)cccc1F — lower, -15%
- CN(C)CCCCNC(=O)c1ccc(Nc2nc(N)c(C(=O)c3c(F)cccc3F)s2)cc1 — higher, -4%
- CCCN(CCc1ccccn1)C(=O)c1ccc(Nc2nc(N)c(C(=O)c3c(F)cccc3F)s2)cc1 — lower, -12%
- COc1ccc(CNC(=O)c2ccc(Nc3nc(N)c(C(=O)c4c(F)cccc4F)s3)cc2)cc1OC — higher, -2%
- Nc1nc(Nc2ccc(C(=O)Nc3cccc(F)c3)cc2)sc1C(=O)c1c(F)cccc1F — higher, -6%
- CN(C)C(=O)CN(C)C(=O)c1ccc(Nc2nc(N)c(C(=O)c3c(F)cccc3F)s2)cc1 — lower, -23%
- Cc1cccc(Cl)c1NC(=O)c1ccc(Nc2nc(N)c(C(=O)c3c(F)cccc3F)s2)cc1 — lower, -12%
- Nc1nc(Nc2ccc(C(=O)N3CCCCC3CCO)cc2)sc1C(=O)c1c(F)cccc1F (stereo unspecified) — lower, -24%
- CC(=O)Nc1ccccc1C(=O)c1sc(Nc2ccc(C(=O)NC[C@@H]3CCCN3C)cc2)nc1N — higher, 0%
- CCOc1ccccc1CCNC(=O)c1ccc(Nc2nc(N)c(C(=O)c3c(F)cccc3F)s2)cc1 — lower, -19%
- Nc1nc(Nc2ccc(C(=O)Nc3ccon3)cc2)sc1C(=O)c1c(F)cccc1F — higher, -1%
- CCCN(CCC#N)C(=O)c1ccc(Nc2nc(N)c(C(=O)c3c(F)cccc3F)s2)cc1 — lower, -12%
- Nc1nc(Nc2ccc(C(=O)N3CCN(CCO)CC3)cc2)sc1C(=O)c1c(F)cccc1F — lower, -43%
- Nc1nc(Nc2ccc(C(=O)NCC3CC3)cc2)sc1C(=O)c1c(F)cccc1F — higher, 0%
- CC(C)C(CO)NC(=O)c1ccc(Nc2nc(N)c(C(=O)c3c(F)cccc3F)s2)cc1 (stereo unspecified) — higher, -3%
- CSc1ccc(NC(=O)c2ccc(Nc3nc(N)c(C(=O)c4c(F)cccc4F)s3)cc2)cc1 — lower, -25%
- Nc1nc(Nc2ccc(C(=O)Nc3ccc(Cl)cc3)cc2)sc1C(=O)c1c(F)cccc1F — lower, -10%
- CC1CN(C(=O)c2ccc(Nc3nc(N)c(C(=O)c4c(F)cccc4F)s3)cc2)CC(C)O1 (stereo unspecified) — lower, -10%
- Nc1nc(Nc2ccc(C(=O)NCCc3ccccc3)cc2)sc1C(=O)c1c(F)cccc1F — lower, -19%
- Nc1nc(Nc2ccc(O)cc2)sc1C(=O)c1c(F)cccc1F — higher, 23%
- Nc1nc(Nc2ccc(C(=O)N3CCOCC3)cc2)sc1C(=O)c1c(F)cccc1F — higher, -4%
- C#CCc1ccc(NC(=O)c2ccc(Nc3nc(N)c(C(=O)c4c(F)cccc4F)s3)cc2)cc1 — higher, 1%
- C=CCN(CC=C)C(=O)c1ccc(Nc2nc(N)c(C(=O)c3c(F)cccc3F)s2)cc1 — lower, -20%
- CC1CC(C)CN(C(=O)c2ccc(Nc3nc(N)c(C(=O)c4c(F)cccc4F)s3)cc2)C1 (stereo unspecified) — lower, -33%
- Nc1nc(Nc2ccc(C(=O)NCCc3cccc(F)c3)cc2)sc1C(=O)c1c(F)cccc1F — higher, -6%
- CC(C)c1cccc(NC(=O)c2ccc(Nc3nc(N)c(C(=O)c4c(F)cccc4F)s3)cc2)c1 — lower, -12%
- Nc1nc(Nc2ccc(C(=O)Nc3ccc(Nc4ccccc4)cc3)cc2)sc1C(=O)c1c(F)cccc1F — higher, -6%
- CSCC[C@@H](CO)NC(=O)c1ccc(Nc2nc(N)c(C(=O)c3c(F)cccc3F)s2)cc1 — higher, -5%
- C[C@@H](NC(=O)c1ccc(Nc2nc(N)c(C(=O)c3c(F)cccc3F)s2)cc1)C1CCCCC1 — lower, -18%
- Nc1nc(Nc2ccc(CCO)cc2)sc1C(=O)c1c(F)cccc1F — higher, 19%
- NC(=O)c1cccc(NC(=O)c2ccc(Nc3nc(N)c(C(=O)c4c(F)cccc4F)s3)cc2)c1 — higher, -1%
- CCCCN(CCO)C(=O)c1ccc(Nc2nc(N)c(C(=O)c3c(F)cccc3F)s2)cc1 — higher, -7%
- C#CCN(C)C(=O)c1ccc(Nc2nc(N)c(C(=O)c3c(F)cccc3F)s2)cc1 — lower, -14%
- C#CCCN(C)C(=O)c1ccc(Nc2nc(N)c(C(=O)c3c(F)cccc3F)s2)cc1 — higher, 0%
- CCCN(CC1CC1)C(=O)c1ccc(Nc2nc(N)c(C(=O)c3c(F)cccc3F)s2)cc1 — higher, -3%
- COCCCNC(=O)c1ccc(Nc2nc(N)c(C(=O)c3c(F)cccc3F)s2)cc1 — lower, -24%
- CN(C(=O)c1ccc(Nc2nc(N)c(C(=O)c3c(F)cccc3F)s2)cc1)C1CCCCC1 — higher, -2%
- Nc1nc(Nc2ccc(C(=O)NCCCCCCO)cc2)sc1C(=O)c1c(F)cccc1F — higher, -5%
- CCCCC(CC)NC(=O)c1ccc(Nc2nc(N)c(C(=O)c3c(F)cccc3F)s2)cc1 (stereo unspecified) — lower, -30%
- Nc1nc(Nc2ccc(C(=O)N3CCSC3)cc2)sc1C(=O)c1c(F)cccc1F — higher, -3%
- CC(C)C(C)NC(=O)c1ccc(Nc2nc(N)c(C(=O)c3c(F)cccc3F)s2)cc1 (stereo unspecified) — lower, -20%
- Cc1cccc(N2CCN(C(=O)c3ccc(Nc4nc(N)c(C(=O)c5c(F)cccc5F)s4)cc3)CC2C)c1 (stereo unspecified) — lower, -23%
- Cc1ccc(NC(=O)c2ccc(Nc3nc(N)c(C(=O)c4c(F)cccc4F)s3)cc2)cc1Cl — higher, -1%
- CCOc1cccc(NC(=O)c2ccc(Nc3nc(N)c(C(=O)c4c(F)cccc4F)s3)cc2)c1 — higher, -7%
- Nc1nc(Nc2ccc(C(=O)N[C@H](CO)Cc3ccccc3)cc2)sc1C(=O)c1c(F)cccc1F — lower, -14%
- CN(CCc1ccccc1)C(=O)c1ccc(Nc2nc(N)c(C(=O)c3c(F)cccc3F)s2)cc1 — lower, -12%
- Nc1nc(Nc2ccc(C(=O)NCCCO)cc2)sc1C(=O)c1c(F)cccc1F — higher, -2%
- Cc1ccc(O)c(NC(=O)c2ccc(Nc3nc(N)c(C(=O)c4c(F)cccc4F)s3)cc2)c1 — higher, -6%
- COc1ccc(CCN(C)C(=O)c2ccc(Nc3nc(N)c(C(=O)c4c(F)cccc4F)s3)cc2)cc1OC — higher, -3%
- COCC(C)NC(=O)c1ccc(Nc2nc(N)c(C(=O)c3c(F)cccc3F)s2)cc1 (stereo unspecified) — higher, -2%
- Cc1cc(NC(=O)c2ccc(Nc3nc(N)c(C(=O)c4c(F)cccc4F)s3)cc2)ccc1C(C)C — higher, -5%
- CCN(CC)CCN(C)C(=O)c1ccc(Nc2nc(N)c(C(=O)c3c(F)cccc3F)s2)cc1 — the same, -9%
- CC(C)CCCC(C)NC(=O)c1ccc(Nc2nc(N)c(C(=O)c3c(F)cccc3F)s2)cc1 (stereo unspecified) — higher, 0%
- Nc1nc(Nc2ccc(C(=O)NCCCCCO)cc2)sc1C(=O)c1c(F)cccc1F — higher, -4%
- CCCCN(CCCCO)C(=O)c1ccc(Nc2nc(N)c(C(=O)c3c(F)cccc3F)s2)cc1 — lower, -12%
- CCCCN(CCC#N)C(=O)c1ccc(Nc2nc(N)c(C(=O)c3c(F)cccc3F)s2)cc1 — higher, 4%
- N#CCCN(CC1CCCO1)C(=O)c1ccc(Nc2nc(N)c(C(=O)c3c(F)cccc3F)s2)cc1 (stereo unspecified) — higher, -5%
- Nc1nc(Nc2ccc(C(=O)Nc3ccc(Cl)nc3)cc2)sc1C(=O)c1c(F)cccc1F — the same, -9%
- CN(C)CCN1CCN(C(=O)c2ccc(Nc3nc(N)c(C(=O)c4c(F)cccc4F)s3)cc2)CC1 — lower, -17%
- CCOC(=O)c1ccc(NC(=O)c2ccc(Nc3nc(N)c(C(=O)c4c(F)cccc4F)s3)cc2)cc1 — higher, 1%
- CC(CNC(=O)c1ccc(Nc2nc(N)c(C(=O)c3c(F)cccc3F)s2)cc1)N(C)C (stereo unspecified) — higher, -7%
- Cc1cccc(NC(=O)c2ccc(Nc3nc(N)c(C(=O)c4c(F)cccc4F)s3)cc2)c1 — higher, -7%
- CCOC(=O)/C=C/c1ccc(Nc2nc(N)c(C(=O)c3c(F)cccc3F)s2)cc1 — higher, -3%
- Nc1nc(Nc2ccc(C(=O)N3CCN(c4ccncc4)CC3)cc2)sc1C(=O)c1c(F)cccc1F — higher, -1%
- COCCN(CCOC)C(=O)c1ccc(Nc2nc(N)c(C(=O)c3c(F)cccc3F)s2)cc1 — higher, -4%
- CC(C)C[C@@H](CO)NC(=O)c1ccc(Nc2nc(N)c(C(=O)c3c(F)cccc3F)s2)cc1 — lower, -16%
- C=CCN(C)C(=O)c1ccc(Nc2nc(N)c(C(=O)c3c(F)cccc3F)s2)cc1 — higher, -6%
- Nc1nc(Nc2ccc(C(=O)NCCc3ccc(Cl)cc3)cc2)sc1C(=O)c1c(F)cccc1F — higher, 0%
- Cc1ccc(CCNC(=O)c2ccc(Nc3nc(N)c(C(=O)c4c(F)cccc4F)s3)cc2)cc1 — higher, 14%
- C=CCN(C(=O)c1ccc(Nc2nc(N)c(C(=O)c3c(F)cccc3F)s2)cc1)C1CCCCC1 — lower, -15%
- COc1ccc(OC)c(CCNC(=O)c2ccc(Nc3nc(N)c(C(=O)c4c(F)cccc4F)s3)cc2)c1 — higher, -5%
- CN(Cc1ccncc1)C(=O)c1ccc(Nc2nc(N)c(C(=O)c3c(F)cccc3F)s2)cc1 — higher, 1%
- CN(C)CCCCCCNC(=O)c1ccc(Nc2nc(N)c(C(=O)c3c(F)cccc3F)s2)cc1 — lower, -16%
- CC[C@H](C)[C@@H](CO)NC(=O)c1ccc(Nc2nc(N)c(C(=O)c3c(F)cccc3F)s2)cc1 — higher, -7%
- CCN(CCO)C(=O)c1ccc(Nc2nc(N)c(C(=O)c3c(F)cccc3F)s2)cc1 — lower, -16%
- Cc1cc(NC(=O)c2ccc(Nc3nc(N)c(C(=O)c4c(F)cccc4F)s3)cc2)ccc1F — higher, -1%
- CC1CC(NC(=O)c2ccc(Nc3nc(N)c(C(=O)c4c(F)cccc4F)s3)cc2)CC(C)(C)C1 (stereo unspecified) — lower, -11%
